Our source for the EC50 and IC50 values is ChEMBL document CHEMBL1129857, “Synthesis, molecular modeling, and biology of the 1-benzyl derivative of APDC-an apparent mGluR6 selective ligand” (Bioorg Med Chem Lett, 1997).

Where only a bound is given, the exact number is not on record here.

What all share (assay type): functional
Test [1] deals with Metabotropic glutamate receptor 6 (Rattus norvegicus, UniProt P35349). As to the kind of experiment: Tested for the agonistic activity against Metabotropic glutamate receptor 6.
Metabotropic glutamate receptor 6, sequence (P35349 whole entry): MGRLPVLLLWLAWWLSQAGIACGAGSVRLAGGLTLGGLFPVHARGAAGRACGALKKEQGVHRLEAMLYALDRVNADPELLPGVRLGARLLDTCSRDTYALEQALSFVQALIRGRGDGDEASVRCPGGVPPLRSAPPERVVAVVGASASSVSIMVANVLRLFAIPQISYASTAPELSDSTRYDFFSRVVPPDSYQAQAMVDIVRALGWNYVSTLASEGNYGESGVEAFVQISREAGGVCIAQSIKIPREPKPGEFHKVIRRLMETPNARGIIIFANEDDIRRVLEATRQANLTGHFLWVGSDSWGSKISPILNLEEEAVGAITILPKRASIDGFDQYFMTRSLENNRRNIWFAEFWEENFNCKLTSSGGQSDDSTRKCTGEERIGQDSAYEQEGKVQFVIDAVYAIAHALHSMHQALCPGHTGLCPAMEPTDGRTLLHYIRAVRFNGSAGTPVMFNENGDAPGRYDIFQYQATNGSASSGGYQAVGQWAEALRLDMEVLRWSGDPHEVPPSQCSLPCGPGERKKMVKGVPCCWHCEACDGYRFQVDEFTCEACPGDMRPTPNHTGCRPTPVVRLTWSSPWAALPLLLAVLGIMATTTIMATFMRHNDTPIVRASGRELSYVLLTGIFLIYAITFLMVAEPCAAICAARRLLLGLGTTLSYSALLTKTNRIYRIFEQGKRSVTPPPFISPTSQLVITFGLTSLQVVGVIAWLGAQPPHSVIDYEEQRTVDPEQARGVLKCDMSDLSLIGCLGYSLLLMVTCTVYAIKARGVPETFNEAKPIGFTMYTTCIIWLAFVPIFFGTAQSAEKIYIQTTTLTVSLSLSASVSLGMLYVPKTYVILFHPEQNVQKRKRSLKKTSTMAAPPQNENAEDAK
In test [2] the target is T1, Metabotropic glutamate receptor 5 (Rattus norvegicus, UniProt P31424). As to the kind of experiment: Tested for the agonistic activity against Metabotropic glutamate receptor 5.
T1 sequence (P31424 whole entry): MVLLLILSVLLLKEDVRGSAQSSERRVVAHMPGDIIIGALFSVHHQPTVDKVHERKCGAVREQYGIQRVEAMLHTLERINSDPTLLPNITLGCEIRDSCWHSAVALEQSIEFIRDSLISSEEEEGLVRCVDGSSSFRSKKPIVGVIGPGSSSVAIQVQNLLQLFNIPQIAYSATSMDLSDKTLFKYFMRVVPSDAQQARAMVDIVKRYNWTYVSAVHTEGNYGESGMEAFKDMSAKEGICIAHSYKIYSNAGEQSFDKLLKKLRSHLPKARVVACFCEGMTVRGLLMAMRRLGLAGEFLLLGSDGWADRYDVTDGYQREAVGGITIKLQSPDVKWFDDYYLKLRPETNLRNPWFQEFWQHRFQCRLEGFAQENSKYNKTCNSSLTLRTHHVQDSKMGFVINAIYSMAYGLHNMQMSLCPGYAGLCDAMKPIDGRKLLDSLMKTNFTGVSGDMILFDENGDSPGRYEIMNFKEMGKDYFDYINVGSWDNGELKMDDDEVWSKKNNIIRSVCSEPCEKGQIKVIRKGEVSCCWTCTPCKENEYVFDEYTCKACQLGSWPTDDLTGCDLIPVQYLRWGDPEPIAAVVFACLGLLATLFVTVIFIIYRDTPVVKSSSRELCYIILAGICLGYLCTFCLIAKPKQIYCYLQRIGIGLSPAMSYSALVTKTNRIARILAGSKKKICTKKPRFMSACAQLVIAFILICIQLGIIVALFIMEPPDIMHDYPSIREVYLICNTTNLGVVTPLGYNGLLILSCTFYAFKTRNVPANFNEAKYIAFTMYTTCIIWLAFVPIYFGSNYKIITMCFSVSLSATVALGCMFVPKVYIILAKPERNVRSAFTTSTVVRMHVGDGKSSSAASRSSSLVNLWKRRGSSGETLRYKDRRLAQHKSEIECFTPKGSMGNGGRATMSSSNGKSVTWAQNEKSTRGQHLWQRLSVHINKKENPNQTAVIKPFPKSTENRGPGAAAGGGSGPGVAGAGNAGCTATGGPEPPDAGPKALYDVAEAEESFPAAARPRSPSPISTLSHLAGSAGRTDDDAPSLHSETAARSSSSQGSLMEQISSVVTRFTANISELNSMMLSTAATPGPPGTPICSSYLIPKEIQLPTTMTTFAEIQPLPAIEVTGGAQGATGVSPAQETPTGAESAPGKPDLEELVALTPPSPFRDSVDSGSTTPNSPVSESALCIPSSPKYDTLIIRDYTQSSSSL
Test [3] concerns the target T1, Metabotropic glutamate receptor 5. The test is described as follows: Tested for the agonistic activity against Metabotropic glutamate receptor 5; Not active.
The target of test [4] is T2, Metabotropic glutamate receptor 1 (Rattus norvegicus, UniProt P23385). The test is described as follows: Tested for the agonistic activity against Metabotropic glutamate receptor 1; Not active.
T2 sequence (P23385 whole entry): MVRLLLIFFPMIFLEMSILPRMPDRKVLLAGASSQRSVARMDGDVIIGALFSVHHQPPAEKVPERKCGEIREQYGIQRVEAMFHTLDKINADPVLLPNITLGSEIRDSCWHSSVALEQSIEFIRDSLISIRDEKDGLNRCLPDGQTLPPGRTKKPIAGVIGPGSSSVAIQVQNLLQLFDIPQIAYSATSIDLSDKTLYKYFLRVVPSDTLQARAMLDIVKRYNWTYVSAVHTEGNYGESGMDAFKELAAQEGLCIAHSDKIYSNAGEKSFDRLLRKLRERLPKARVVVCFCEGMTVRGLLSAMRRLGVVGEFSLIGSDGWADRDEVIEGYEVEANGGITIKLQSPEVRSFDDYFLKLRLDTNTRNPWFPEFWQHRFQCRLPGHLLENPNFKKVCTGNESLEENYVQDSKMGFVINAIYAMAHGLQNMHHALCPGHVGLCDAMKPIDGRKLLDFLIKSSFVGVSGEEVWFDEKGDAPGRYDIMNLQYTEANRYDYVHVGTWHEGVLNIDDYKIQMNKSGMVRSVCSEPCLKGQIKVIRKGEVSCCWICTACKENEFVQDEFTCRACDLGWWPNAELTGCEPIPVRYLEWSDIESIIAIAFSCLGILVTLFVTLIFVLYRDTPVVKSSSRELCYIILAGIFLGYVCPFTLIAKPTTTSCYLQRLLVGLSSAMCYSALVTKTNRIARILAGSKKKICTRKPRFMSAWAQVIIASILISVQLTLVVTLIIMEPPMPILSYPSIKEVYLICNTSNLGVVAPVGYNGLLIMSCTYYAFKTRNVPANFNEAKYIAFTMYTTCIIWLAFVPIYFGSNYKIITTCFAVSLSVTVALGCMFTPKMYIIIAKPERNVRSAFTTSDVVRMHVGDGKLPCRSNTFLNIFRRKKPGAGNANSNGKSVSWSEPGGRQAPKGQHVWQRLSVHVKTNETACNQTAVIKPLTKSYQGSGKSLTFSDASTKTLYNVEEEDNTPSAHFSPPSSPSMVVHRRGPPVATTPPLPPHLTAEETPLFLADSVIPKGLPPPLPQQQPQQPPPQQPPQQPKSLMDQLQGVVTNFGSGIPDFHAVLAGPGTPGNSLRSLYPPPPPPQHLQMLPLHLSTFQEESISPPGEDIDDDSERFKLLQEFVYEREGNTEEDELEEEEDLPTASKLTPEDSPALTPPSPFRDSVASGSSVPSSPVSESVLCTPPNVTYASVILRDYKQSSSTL
Test [5] addresses T3, Metabotropic glutamate receptor 2 (Rattus norvegicus, UniProt P31421). The test is described as follows: Tested for the agonistic activity against Metabotropic glutamate receptor 2; Not active.
Test [6] addresses T3, Metabotropic glutamate receptor 2. As to the kind of experiment: Tested for the agonistic activity against Metabotropic glutamate receptor 2.
For test [7], the target named is T2, Metabotropic glutamate receptor 1. As to the kind of experiment: Tested for the agonistic activity against Metabotropic glutamate receptor 1.

T3 sequence (P31421 whole entry): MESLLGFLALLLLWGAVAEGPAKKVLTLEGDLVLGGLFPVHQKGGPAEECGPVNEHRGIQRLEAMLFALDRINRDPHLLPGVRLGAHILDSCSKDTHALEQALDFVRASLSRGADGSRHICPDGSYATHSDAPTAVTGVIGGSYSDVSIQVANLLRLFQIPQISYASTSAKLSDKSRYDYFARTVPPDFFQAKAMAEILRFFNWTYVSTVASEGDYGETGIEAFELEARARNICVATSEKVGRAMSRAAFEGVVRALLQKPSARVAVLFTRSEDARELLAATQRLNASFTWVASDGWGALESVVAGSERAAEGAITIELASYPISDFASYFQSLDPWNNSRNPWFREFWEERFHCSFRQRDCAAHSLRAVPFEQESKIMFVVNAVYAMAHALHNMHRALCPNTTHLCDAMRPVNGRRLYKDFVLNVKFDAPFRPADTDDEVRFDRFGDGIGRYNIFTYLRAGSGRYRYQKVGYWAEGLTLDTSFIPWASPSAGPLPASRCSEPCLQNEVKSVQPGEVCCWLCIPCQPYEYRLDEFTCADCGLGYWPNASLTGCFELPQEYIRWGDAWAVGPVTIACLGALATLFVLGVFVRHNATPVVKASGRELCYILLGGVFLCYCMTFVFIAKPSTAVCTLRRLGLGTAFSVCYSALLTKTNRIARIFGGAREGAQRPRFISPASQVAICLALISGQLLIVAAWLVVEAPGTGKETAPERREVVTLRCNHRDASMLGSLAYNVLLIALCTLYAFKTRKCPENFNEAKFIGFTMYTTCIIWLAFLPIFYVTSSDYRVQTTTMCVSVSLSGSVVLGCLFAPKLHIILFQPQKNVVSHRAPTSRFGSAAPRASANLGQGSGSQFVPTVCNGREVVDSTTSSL

One may read the EC50 as the concentration needed to bring the measured effect to its halfway point. A low value points to higher potency in that assay. Take `NC(CCP(=O)(O)O)C(=O)O` (stereo not given): the EC50 in test [1] amounted to 1 µM.
`N[C@@]1(C(=O)O)CC[C@@H](C(=O)O)C1`: the results for the EC50 in test [2] and in test [1] were 15 µM and 60 µM, respectively.
For the molecule `O=C(N[C@@]1(C(=O)O)CN[C@@H](C(=O)O)C1)c1ccccc1`, the EC50 result is “Not Active” in test [3], “Not Active” in test [4], “Not Active” in test [5] and 1000 µM in test [1].
As to `N[C@@]1(C(=O)O)CN[C@@H](C(=O)O)C1`, the EC50 was found to be 0.3 µM in test [6], 200 µM in test [2], 100 µM in test [7] and 110 µM in test [1].
What is called IC50 is the point on the concentration scale where inhibition reaches its midpoint. Take `N[C@]1(C(=O)O)C[C@H](C(=O)O)N(Cc2ccccc2)C1`: the IC50 in test [6] came to 200 µM; in test [2] it was 600 µM. Moreover, the half-maximal effective concentration (EC50) in test [7] was above 1000 µM; in test [1], 20 µM.
